Measurements as given in PubChem BioAssay (NCI).
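96-well plates; 48 h exposure; 5 concentrations. Endpoints by linear interpolation between flanking doses. Not reached: highest tested concentration assigned. At the TGI there is no net growth.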

Legend:
Experiment in all cases: NCI tumour cell line growth inhibition, 48 h
DMS 114 small cell lung = system: DMS 114 small cell lung
KM20L2 colon = system: KM20L2 colon
M19-MEL melanoma = system: M19-MEL melanoma
P388 leukemia = system: P388 leukemia
P388/ADR leukemia = system: P388/ADR leukemia
SN12K1 renal = system: SN12K1 renal
LXFL 529 NSCLC = system: LXFL 529 NSCLC
RXF-631 renal = system: RXF-631 renal

| Compound | TGI (DMS 114 small cell lung) [µM] | TGI (KM20L2 colon) [µM] | TGI (M19-MEL melanoma) [µM] | TGI (P388 leukemia) [µM] | TGI (P388/ADR leukemia) [µM] | TGI (SN12K1 renal) [µM] | TGI (LXFL 529 NSCLC) [µM] | TGI (RXF-631 renal) [µM] |
| --- | --- | --- | --- | --- | --- | --- | --- | --- |
| Nc1nncs1 | > 5000 | > 4800 | > 4550 | 2670 | 2820 | > 5000 | – | – |
| O=C(O)C(Br)Cc1ccc2c(c1)OCO2 (stereo unspecified) | > 100 | > 100 | > 100 | – | – | – | > 100 | – |
| CSc1sc(=S)sc1SC | > 100 | > 100 | > 100 | > 100 | > 100 | > 100 | – | – |
| O=C(O)CNCc1c2ccccc2[n+]([O-])c2ccccc12 | > 100 | > 100 | > 100 | – | – | – | > 100 | > 100 |
| COc1ccc(/C(Cl)=C(\C=O)c2ccc(Cl)c(Cl)c2)cc1OC | 33.9 | 18.8 | 23 | – | – | – | 13.7 | 16.6 |
